US20240368214A1, “POSITIVE NMDA-MODULATING COMPOUNDS AND METHODS OF USE THEREOF” (SAGE THERAPEUTICS, INC., priority 2021, published 2024)

Biological target: T1, recombinant human GluN1/GluN2A receptor (Homo sapiens, UniProt Q05586+Q12879)
T1 construct: expressed in transfected cells; host or cells: HEK293, tetracycline-inducible expression
Experiment: Whole-cell patch clamp of mammalian cells (Syncropatch 384i), NMDA modulation
Type: cell-based
Conditions: Table H-2, HEK293 cells, human GluN1/GluN2A, glutamate 1 μM / glycine 100 μM, -80 mV, peak amplitude increase; for EC50: read-out: EC50
How it was run: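 Modulation read as fold rise in peak current, (Icomp/Icontrol)−1, from 8 concentrations with ≥2 wells each, four-parameter fit. Compound pre-incubated 120 s then co-applied with 1 μM glutamate plus 100 μM glycine; tetracycline-inducible HEK293 GluN1/GluN2A cells clamped at −80 mV.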

T1 sequence (Q12879 23-1464, other chains not shown): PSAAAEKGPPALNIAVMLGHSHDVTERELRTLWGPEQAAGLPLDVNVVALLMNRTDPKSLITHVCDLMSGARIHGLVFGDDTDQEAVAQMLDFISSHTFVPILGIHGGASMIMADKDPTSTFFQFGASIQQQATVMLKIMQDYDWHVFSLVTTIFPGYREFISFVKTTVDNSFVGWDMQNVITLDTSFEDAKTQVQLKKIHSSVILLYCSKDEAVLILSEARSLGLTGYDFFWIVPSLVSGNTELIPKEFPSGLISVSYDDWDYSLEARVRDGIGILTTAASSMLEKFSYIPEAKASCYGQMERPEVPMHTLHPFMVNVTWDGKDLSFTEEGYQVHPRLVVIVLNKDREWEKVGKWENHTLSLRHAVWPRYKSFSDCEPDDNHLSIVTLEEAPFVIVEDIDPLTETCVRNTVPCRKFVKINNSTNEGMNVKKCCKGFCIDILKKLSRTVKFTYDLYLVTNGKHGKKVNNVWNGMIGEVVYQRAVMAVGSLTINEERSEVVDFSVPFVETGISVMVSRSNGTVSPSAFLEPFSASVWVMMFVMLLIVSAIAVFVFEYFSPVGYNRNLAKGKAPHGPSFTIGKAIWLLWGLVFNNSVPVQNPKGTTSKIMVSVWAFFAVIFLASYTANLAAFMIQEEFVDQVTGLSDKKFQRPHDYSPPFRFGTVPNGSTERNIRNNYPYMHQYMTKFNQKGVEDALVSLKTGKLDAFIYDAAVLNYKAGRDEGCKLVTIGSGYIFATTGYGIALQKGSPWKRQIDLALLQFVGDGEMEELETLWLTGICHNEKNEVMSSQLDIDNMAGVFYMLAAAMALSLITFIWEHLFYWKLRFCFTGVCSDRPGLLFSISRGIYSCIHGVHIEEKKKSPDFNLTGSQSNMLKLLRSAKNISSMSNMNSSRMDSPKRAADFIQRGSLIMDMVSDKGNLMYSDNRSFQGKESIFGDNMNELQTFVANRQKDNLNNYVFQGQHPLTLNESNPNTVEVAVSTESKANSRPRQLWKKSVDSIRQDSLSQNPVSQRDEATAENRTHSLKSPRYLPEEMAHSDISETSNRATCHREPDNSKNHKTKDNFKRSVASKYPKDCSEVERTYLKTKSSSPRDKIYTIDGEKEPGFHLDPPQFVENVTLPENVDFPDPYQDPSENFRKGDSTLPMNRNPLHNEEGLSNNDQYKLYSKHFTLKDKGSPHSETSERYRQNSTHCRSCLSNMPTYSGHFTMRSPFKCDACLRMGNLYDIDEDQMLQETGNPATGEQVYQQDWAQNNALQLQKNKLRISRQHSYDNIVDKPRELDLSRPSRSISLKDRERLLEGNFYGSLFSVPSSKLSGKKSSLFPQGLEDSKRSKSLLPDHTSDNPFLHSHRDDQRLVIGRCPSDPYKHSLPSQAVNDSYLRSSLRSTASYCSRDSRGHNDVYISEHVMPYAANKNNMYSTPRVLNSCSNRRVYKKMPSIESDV

Row | SMILES | Emax [%] | EC50 [nM]
1 | CC(C)[C@@H](O)CC[C@@H](C)[C@H]1CCC[C@H]2[C@@H]3CC=C4C[C@@](C)(O)CC[C@]4(C)[C@H]3CC[C@]12C [Compound H-7, (2S,4aR,4bS,6aR,7R,10aS,10bS)-7-((2R,5S)-5-hydroxy-6-methylheptan-2-yl)-2,4a,6a-trimethyl-1,2,3,4,4a,4b,5,6,6a, 7,8,9,10,10a, 10b,11-hexadecahydrochrysen-2-ol] | – | 100 to 500
2 | CC(C)[C@H](O)CC[C@@H](C)[C@H]1CCC[C@H]2[C@@H]3CC=C4C[C@@](C)(O)CC[C@]4(C)[C@H]3CC[C@]12C [Compound H-8, (2S,4aR,4bS,6aR,7R,10aS,10bS)-7-((2R,5R)-5-hydroxy-6-methylheptan-2-yl)-2,4a,6a-trimethyl-1,2,3,4,4a,4b,5,6,6a, 7,8,9,10,10a,10b,11-hexadecahydrochrysen-2-ol] | < 100 | 100 to 500
3 | CC[C@]1(O)CC[C@@]2(C)C(=CC[C@H]3[C@@H]4CCC[C@H]([C@H](C)CC[C@@](C)(O)C(F)(F)F)[C@@]4(C)CC[C@@H]32)C1 [Compound H-10, (2S,4aR,4bS,6aR,7R,10aS,10bS)-2-ethyl-4a,6a-dimethyl-7-((2R,5R)-6,6,6-trifluoro-5-hydroxy-5-methylhexan-2-yl)-1,2,3,4,4a,4b,5,6,6a,7,8,9,10,10a,10b,11-hexadecahydrochrysen-2-ol] | – | 500 to 1000
4 | C[C@H](CC[C@@](C)(O)C(F)(F)F)[C@H]1CCC[C@H]2[C@@H]3CC=C4C[C@@](C)(O)CC[C@]4(C)[C@H]3CC[C@]12C [Compound H-11, (2S,4aR,4bS,6aR,7R,10aS,10bS)-2,4a,6a-trimethyl-7-((2R,5R)-6,6,6-trifluoro-5-hydroxy-5-methylhexan-2-yl)-1,2,3,4,4a,4b,5,6,6a,7,8,9,10,10a,10b,11-hexadecahydrochrysen-2-ol] | – | 100 to 500

The remaining lines, values ahead:

Row | Emax [%] | EC50 [nM] | SMILES
5 | < 100 | 1 to 100 | CC[C@]1(O)CC[C@@]2(C)C(=CC[C@H]3[C@@H]4CCC[C@H]([C@H](C)CC[C@@H](O)C(C)C)[C@@]4(C)CC[C@@H]32)C1 [Compound H-6, (2S,4aR,4bS,6aR,7R,10aS,10bS)-2-ethyl-7-((2R,5R)-5-hydroxy-6-methylheptan-2-yl)-4a,6a-dimethyl-1,2,3,4,4a,4b,5,6,6a,7,8,9,10,10a,10b,11-hexadecahydrochrysen-2-ol]
6 | – | 100 to 500 | CC[C@]1(O)CC[C@@]2(C)C(=CC[C@H]3[C@@H]4CCC[C@H]([C@H](C)CC[C@](C)(O)C(F)(F)F)[C@@]4(C)CC[C@@H]32)C1 [Compound H-9, (2S,4aR,4bS,6aR,7R,10aS,10bS)-2-ethyl-4a,6a-dimethyl-7-((2R,5S)-6,6,6-trifluoro-5-hydroxy-5-methylhexan-2-yl)-1,2,3,4,4a,4b,5,6,6a,7,8,9,10,10a,10b,11-hexadecahydrochrysen-2-ol]
